Assays:
[1] = Body weight of rats in the MBP EAE model; assay type: in vivo, Lewis rats; details: Group 2F, 1 mg/kg IP once daily from study day 0
Text: Body Weights. Body weight loss can be the first sign of disease initiation, while a sudden marked weight gain tends to accompany remission of EAE symptoms. Therefore, determination of individual body weights of animals was made shortly before EAE induction on study day 0 (study commencement) and thereafter on a daily basis throughout the entire 21-day observation period.
This working EXAMPLE discloses the weight change of rats subjected to the experiment described in Example 7. Body weight loss can be the first sign of disease initiation, while a sudden marked weight gain tends to accompany remission of EAE symptoms. Therefore, determination of individual body weights of animals was made shortly before EAE induction on study day 0 (study commencement) and on a daily basis throughout the 21-day observation period.

[2] = target: T1, MMP-2 (Homo sapiens, UniProt P08253); details: cited from earlier work
T1 sequence (P08253 110-660): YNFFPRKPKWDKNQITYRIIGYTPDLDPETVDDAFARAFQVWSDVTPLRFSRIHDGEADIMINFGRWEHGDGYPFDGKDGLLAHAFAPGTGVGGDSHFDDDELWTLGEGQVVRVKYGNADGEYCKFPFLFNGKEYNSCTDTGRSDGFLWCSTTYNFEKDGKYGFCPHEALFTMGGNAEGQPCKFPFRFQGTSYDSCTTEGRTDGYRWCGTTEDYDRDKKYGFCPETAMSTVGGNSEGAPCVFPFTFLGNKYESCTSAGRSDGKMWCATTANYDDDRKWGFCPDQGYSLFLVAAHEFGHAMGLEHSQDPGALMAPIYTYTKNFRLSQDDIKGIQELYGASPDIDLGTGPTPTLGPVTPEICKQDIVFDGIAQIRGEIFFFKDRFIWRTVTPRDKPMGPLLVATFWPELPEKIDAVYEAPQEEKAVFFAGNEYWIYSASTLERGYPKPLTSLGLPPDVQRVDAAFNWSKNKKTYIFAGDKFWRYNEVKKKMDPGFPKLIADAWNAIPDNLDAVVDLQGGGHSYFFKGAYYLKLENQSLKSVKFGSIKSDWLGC

[3] = target: MMP-9 (Homo sapiens, UniProt P14780); details: cited from earlier work
Chain of MMP-9 (P14780 94-707, species assumed): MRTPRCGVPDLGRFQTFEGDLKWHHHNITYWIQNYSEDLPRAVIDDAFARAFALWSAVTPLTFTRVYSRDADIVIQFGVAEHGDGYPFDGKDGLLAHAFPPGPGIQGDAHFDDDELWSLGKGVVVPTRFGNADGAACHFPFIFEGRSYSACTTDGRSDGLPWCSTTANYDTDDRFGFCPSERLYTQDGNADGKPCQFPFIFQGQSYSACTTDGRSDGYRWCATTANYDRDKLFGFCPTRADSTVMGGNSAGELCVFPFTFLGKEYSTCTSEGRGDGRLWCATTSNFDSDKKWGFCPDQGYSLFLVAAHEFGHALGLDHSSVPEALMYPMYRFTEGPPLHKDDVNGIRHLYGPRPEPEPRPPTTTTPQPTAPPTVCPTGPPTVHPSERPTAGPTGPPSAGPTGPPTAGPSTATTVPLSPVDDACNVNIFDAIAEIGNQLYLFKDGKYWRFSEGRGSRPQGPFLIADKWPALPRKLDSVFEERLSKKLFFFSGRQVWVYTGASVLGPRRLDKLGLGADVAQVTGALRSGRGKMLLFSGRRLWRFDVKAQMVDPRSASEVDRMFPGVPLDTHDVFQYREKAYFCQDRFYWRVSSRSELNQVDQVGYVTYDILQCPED

[4] = tested on: primary progressive MS; details: 943 patients with primary progressive MS (Wolinsky et al. 2007); cited from earlier work
[5] = tested on: MS; details: in vivo; cited from earlier work

Molecule | binding and inhibition of MMP-2 [2] | binding and inhibition of MMP-9 [3] | other results
C[C@@H]1C[C@H]2[C@@H]3CCC4=CC(=O)C=C[C@]4(C)[C@@]3(F)[C@@H](O)C[C@]2(C)[C@@]1(O)C(=O)CO [Dexamethasone] |  |  | mean body weight loss during the study [1]: 10%; mean body weight lost at study termination [1]: 2%
O=S(=O)(CCCC(S)CS)c1ccc(Oc2ccccc2)cc1 (centres unmarked) [compound 2, 5-(4-phenoxyphenylsulfonyl)pentane-1,2-dithiol] | bind selectively and inhibit potently | bind selectively and inhibit potently | 
O=S(=O)(CCC(S)CS)c1ccc(Oc2ccccc2)cc1 (centres unmarked) [compound 1, 4-(4-phenoxyphenylsulfonyl)butane-1,2-dithiol] | bind selectively and inhibit potently | bind selectively and inhibit potently | 
glatiramer acetate |  |  | progression of disability and the disease [4]: failed to halt the progression of disability and the disease
interferon-β |  |  | effectiveness in reducing the rate of MS episodes [5]: 18-38%
